Experimental findings from patent US8350048B2, “Amide compounds as boosters of antivirals” (Janssen R&D Ireland, priority 2007, dated 2013) are described below.

SMILES strings stand for the structures. Read-outs that look alike come from different tables or passages of the source.

Data set [1] deals with wild-type HIV-1IIIB strain. Description: Antiviral activity, MT4 LTR-EGFP cellular assay. Format: cell-based. Particulars: read-out: Antiviral activity IIIB (pEC50) (converted). As to the method: (§1) Assay 1 &2: Antiviral Activity/Toxicity
The compounds of the present invention were tested for antiviral activity in a cellular assay, which was performed according to the following procedure.
The human T-cell line MT4 is engineered with Green Fluorescent Protein (GFP) and an HIV-specific promoter, HIV-1 long terminal repeat (LTR). This cell line is designated MT4 LTR-EGFP, and can be used for the in vitro evaluation of anti-HIV activity of investigational compounds. In HIV-1 infected cells, the Tat protein is produced which upregulates the LTR promotor and finally leads to stimulation of the GFP reporter production, allowing measuring ongoing HIV-infection fluorometrically.
(§2) The ratio of CC50 to EC50 is defined as the selectivity index (SI) and is an indication of the selectivity of the anti-HIV activity of the inhibitor. The ultimate monitoring of HIV-1 infection and cytotoxicity is done using a scanning microscope. Image analysis allows very sensitive detection of viral infection. Measurements are done before cell necrosis, which usually takes place about five days after infection, in particular measurements are performed three days after infection.
(§3) A pEC50 value corresponds to −log10(EC50). A pCC50 value corresponds to −log10(CC50).

Data set [2] in a line: Toxicity, mock-infected MT4 CMV-EGFP cells. Format: cell-based, human. Conditions: human, mock-infected MT4 CMV-EGFP cells; read-out: Toxicity MT4 (pCC50) (converted).
Excerpt: as §1
Analogously, MT4 cells are engineered with GFP and the constitutional cytomegalovirus (CMV) promotor. […] Cytotoxic investigational compounds reduce GFP levels of mock-infected MT4 CMV-EGFP cells.
as §2, §3

Data set [3] is described as follows: Metabolic stability of test compounds (HLM15'). Format: in vitro ADME, human. Particulars: pH 7.4; human liver microsomes 1 mg/ml, 5 μM test compound, 15 min; read-out: Metabolic stability (HLM, % recovery after 15'). From the text:
Human liver tissue is rinsed in ice-cold 0.1 M Tris-HCl (pH 7.4) buffer to wash excess blood. Tissue is then blotted dry, weighed and chopped coarsely using surgical scissors. The tissue pieces are homogenized in 3 volumes of ice-cold 0.1 M phosphate buffer (pH 7.4) using either a Potter-S (Braun, Italy) equipped with a Teflon pestle or a Sorvall Omni-Mix homogenizer, for 7×10 sec. In both cases, the vessel is kept in/on ice during the homogenization process. Tissue homogenates are centrifuged at 9000×g for 20 min at 4° C. using a Sorvall centrifuge or Beckman Ultracentrifuge. The resulting supernatant can be stored at −80° C. and is designated ‘S9’. The S9 fraction is centrifuged at 100,000×g for 60 min at 4° C. using a Beckman ultracentrifuge. The resulting supernatant is carefully aspirated, aliquoted and designated ‘cytosol’. The pellet is re-suspended in 0.1 M phosphate buffer (pH 7.4) in a final volume of 1 ml per 0.5 g original tissue weight and designated ‘microsomes’. All sub-cellular fractions are aliquoted, immediately frozen in liquid nitrogen and stored at −80° C. until use.
Heat-inactivated (10 min at 95° C.) ‘S9’ or microsomes were used for blank experiments. […] The reaction was incubated for 0 or 15 min. Next, the reaction was stopped by addition of 2 volumes of DMSO (or acetonitrile). Samples were centrifuged (10 min, 900×g) and analyzed by LC-MS.

The target of data set [4] is T1, CYP3A4 (Homo sapiens, UniProt P08684). Description: CYP450 inhibition CDNA-CYP3A4-BFC. Particulars: human, E. coli expressed CYP3A4, pH 7.4, probe BFC 150 μM. From the text:
(§4) Assay 4: CYP450 Inhibition

In data set [5] the target is T1, CYP3A4. The data set can be described thus: CYP450 inhibition CDNA-CYP3A4-BQ. Conditions: human, E. coli expressed CYP3A4, pH 7.4, probe BQ 60 μM.
Excerpt: as §4

For another data set, the target named is CYP2C9 (Homo sapiens, UniProt P11712). Description: in vitro. Particulars: human, pH 7.4.
Excerpt: as §4

Data set [6] deals with T1, CYP3A4. Description: in vitro. Particulars: human, pH 7.4.
Excerpt: as §4

The target in the next data set is CYP2D6 (Homo sapiens, UniProt P10635). Description: in vitro. Conditions: pH 7.4.
The target in another data set is T2, CYP1A2 (Homo sapiens, UniProt P05177).
T2 sequence (P05177 1-516): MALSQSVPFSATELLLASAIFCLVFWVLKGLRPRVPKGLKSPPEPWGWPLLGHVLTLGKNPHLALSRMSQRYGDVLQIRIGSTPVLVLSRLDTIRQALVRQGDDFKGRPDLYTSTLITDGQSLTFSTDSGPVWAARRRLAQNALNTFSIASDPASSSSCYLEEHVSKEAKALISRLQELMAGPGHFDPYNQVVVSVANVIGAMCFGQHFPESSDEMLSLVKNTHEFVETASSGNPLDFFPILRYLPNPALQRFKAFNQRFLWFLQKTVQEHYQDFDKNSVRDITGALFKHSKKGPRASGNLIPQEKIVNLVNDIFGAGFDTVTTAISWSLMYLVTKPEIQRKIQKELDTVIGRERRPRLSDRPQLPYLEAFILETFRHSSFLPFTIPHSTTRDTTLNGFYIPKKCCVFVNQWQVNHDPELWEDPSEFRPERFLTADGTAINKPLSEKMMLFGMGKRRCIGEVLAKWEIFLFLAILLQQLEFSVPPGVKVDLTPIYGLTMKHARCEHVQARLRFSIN
The data set can be described thus: in vitro. Conditions: E. coli expressed CYP1A2, pH 7.4, probe CEC 5 μM.

The next data set concerns the target CYP2C19 (Homo sapiens, UniProt P33261). Description: in vitro. Particulars: E. coli expressed CYP2C19, pH 7.4, probe CEC 25 μM.
The mark [7] stands for this setting: Human immunodeficiency virus 1, 72 h, wild-type HIV-1 IIIB, MT4 LTR-EGFP cells, three days after infection.

CYP2D6, sequence (P10635 whole entry): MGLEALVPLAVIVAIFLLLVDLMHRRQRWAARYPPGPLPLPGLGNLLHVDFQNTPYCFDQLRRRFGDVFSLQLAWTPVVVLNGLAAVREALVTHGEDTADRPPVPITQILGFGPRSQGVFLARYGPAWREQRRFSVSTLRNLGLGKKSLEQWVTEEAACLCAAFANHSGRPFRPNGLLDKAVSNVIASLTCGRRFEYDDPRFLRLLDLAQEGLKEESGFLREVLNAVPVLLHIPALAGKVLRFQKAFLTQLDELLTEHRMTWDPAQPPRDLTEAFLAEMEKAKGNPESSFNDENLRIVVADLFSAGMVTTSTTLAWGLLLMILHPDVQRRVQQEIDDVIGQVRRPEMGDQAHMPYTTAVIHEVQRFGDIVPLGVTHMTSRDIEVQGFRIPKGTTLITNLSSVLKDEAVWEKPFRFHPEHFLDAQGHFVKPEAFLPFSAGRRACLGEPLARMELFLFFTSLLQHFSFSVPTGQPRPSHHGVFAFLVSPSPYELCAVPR
CYP2C9, sequence (P11712 whole entry): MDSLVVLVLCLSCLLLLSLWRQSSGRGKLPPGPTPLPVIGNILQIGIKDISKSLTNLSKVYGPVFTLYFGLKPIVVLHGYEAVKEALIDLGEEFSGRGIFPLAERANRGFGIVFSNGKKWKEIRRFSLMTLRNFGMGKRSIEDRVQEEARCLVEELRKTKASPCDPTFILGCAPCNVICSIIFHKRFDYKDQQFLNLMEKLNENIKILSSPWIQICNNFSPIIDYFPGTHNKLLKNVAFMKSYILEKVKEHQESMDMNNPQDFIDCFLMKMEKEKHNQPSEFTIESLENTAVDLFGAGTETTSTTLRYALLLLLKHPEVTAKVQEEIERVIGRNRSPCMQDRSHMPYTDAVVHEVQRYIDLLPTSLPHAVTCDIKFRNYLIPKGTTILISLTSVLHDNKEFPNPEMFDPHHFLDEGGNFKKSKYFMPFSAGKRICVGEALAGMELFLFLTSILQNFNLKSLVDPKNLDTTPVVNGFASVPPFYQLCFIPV
CYP2C19, sequence (P33261 whole entry): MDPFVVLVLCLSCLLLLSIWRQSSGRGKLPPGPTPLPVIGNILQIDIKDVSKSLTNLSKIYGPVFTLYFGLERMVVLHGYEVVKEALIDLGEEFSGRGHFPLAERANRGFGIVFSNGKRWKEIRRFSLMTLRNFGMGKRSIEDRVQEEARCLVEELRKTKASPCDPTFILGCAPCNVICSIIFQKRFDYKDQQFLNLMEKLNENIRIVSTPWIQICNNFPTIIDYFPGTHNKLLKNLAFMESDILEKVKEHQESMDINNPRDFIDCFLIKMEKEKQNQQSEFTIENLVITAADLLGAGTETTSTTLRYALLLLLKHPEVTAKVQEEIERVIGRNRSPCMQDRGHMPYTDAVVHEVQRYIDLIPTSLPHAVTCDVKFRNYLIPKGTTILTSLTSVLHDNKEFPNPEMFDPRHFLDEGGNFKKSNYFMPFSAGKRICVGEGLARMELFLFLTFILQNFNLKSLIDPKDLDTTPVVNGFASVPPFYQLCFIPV
T1 sequence (P08684 whole entry): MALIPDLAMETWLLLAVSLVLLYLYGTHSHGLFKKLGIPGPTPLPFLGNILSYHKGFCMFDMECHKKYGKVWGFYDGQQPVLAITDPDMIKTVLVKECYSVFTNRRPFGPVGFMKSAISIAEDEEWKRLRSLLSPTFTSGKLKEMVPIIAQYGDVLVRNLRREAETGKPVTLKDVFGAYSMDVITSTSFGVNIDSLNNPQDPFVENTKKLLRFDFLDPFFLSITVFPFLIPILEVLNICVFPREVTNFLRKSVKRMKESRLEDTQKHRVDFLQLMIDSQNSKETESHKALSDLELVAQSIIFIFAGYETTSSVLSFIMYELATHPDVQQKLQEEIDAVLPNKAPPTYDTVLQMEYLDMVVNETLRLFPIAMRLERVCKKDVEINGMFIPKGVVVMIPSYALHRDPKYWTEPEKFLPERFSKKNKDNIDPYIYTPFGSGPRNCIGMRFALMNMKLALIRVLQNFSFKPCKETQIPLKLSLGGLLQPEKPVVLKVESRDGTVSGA
Procedure for CYP1A2: (§5) Inhibition of the metabolism of test compounds by different CYP P450 isoenzymes was determined using E. coli expressed proteins (3A4, 2C9, 2D6, 1A2, and 2C19) that convert their specific substrates into a fluorescent molecule (Table 6). This fluorescent molecule was measured using a fluorescent plate reader (Victor2 (Wallac) or Fluoroskan (Labsystems)). […] CYP P450 enzymes were prepared in house or commercially bought and stored at −80° C.
(§6) The assay was performed in black 96 well Costar plates. Test compounds were added to a CYP P450 enzyme solution in the presence of an NADPH generating system. After 5 min of preincubation at 37° C., the freshly prepared, phosphate buffered (pH 7.4) substrate solution was added. Known CYP P450 inhibitors were used as positive controls, negative controls were run without CYP P450 enzyme. […] Reaction mixtures were incubated at 37° C. for 30 min (CYP3A4-BFC), 30 min (CYP3A4-BQ), 10 min (CYP3A4-DBF), 15 min (CYP1A2-CEC), 30 min (CYP2C9-MFC, CYP2C19-CEC), or 45 min (CYP2D6-AMMC), respectively. Then, the reaction was stopped by the addition of 200 μl acetonitrile, and the fluorescent signal was detected.
(§7) Calculation of CYP P450 isoenzyme inhibition (% inh.):
(§8) % activity=(100/(average positive control−average negative control))×(average sample−average negative control)
Procedure for CYP2C19: as §5, §6, §7, §8
Procedure for CYP2D6: as §5, §6, §7, §8

On to `CCN(C)c1nc2ccc(C(=O)N(CC(C)C)C[C@@H](O)[C@H](Cc3ccccc3)NC(=O)OCc3ccncc3)cc2o1` [Compound C10, Pyridin-4-ylmethyl (2S,3R)-4-(2-(ethyl(methyl)amino)-N-isobutylbenzo[d]-oxazole-6-carboxamido)-3-hydroxy-1-phenylbutan-2-ylcarbamate], for which the EC50 in [1] (setting [7]) was 49 µM. Also, in data set [2], the CC50 at 3 days is 46.8 µM. In data set [3], the recovery at 15 min, 5 μM was determined as 13%. In addition, the inhibition at 30 min, 10 μM at CYP3A4 [4] is 91%; against CYP3A4 [5], 71%; against CYP2C9 it was 93%; at CYP2C19, 70%. Further, the inhibition at 10 min, 10 μM at CYP3A4 [6] came out at 95%. Besides, the inhibition at 45 min, 10 μM on CYP2D6 worked out at 99%. Moreover, the inhibition at 15 min, 10 μM against CYP1A2 is 18%.

In the case of `CC(C)CN(C[C@@H](O)[C@H](Cc1ccccc1)NC(=O)OCc1cncs1)C(=O)c1ccc2ncn(C)c2c1` [Compound C8, Thiazol-5-ylmethyl (2S,3R)-3-hydroxy-4-(N-isobutyl-1-methyl-1H-benzo[d]-imidazole-6-carboxamido)-1-phenylbutan-2-ylcarbamate], in data set [1] (setting [7]), the EC50 is greater than 100 µM. The CC50 at 3 days in data set [2] was greater than 100 µM. Further, the recovery at 15 min, 5 μM in [3] came out at 57%. The inhibition at 30 min, 10 μM turned out to be 81% against CYP3A4 [4], 72% on CYP3A4 [5], 92% at CYP2C9 and 75% on CYP2C19. Moreover, the inhibition at 10 min, 10 μM against CYP3A4 [6] was determined as 93%. In addition, the inhibition at 45 min, 10 μM at CYP2D6 was determined as 12%. For the same molecule, the inhibition at 15 min, 10 μM on CYP1A2 was 4%.

With `CC(C)CN(C[C@@H](O)[C@H](Cc1ccccc1)NC(=O)OCc1cncs1)C(=O)c1ccc2nc(NCCN(C)C)oc2c1` [Compound C16, Thiazol-5-ylmethyl (2S,3R)-4-(2-(2-(dimethylamino)ethylamino)-N-isobutyl-benzo[d]oxazole-6-carboxamido)-3-hydroxy-1-phenylbutan-2-ylcarbamate], the EC50 in data set [1] (setting [7]) was greater than 100 µM. Moreover, in data set [2], the CC50 at 3 days was greater than 100 µM. For the same molecule, in data set [3], the recovery at 15 min, 5 μM is 59%. Besides, the inhibition at 30 min, 10 μM came out at 93% against CYP3A4 [4], 80% against CYP3A4 [5], 34% against CYP2C9 and 36% against CYP2C19. Moreover, at CYP3A4 [6], the inhibition at 10 min, 10 μM is 91%. In addition, on CYP2D6, the inhibition at 45 min, 10 μM was 89%. The inhibition at 15 min, 10 μM against CYP1A2 was determined as 0%.

For the molecule `CC(C)CN(C[C@@H](O)[C@H](Cc1ccccc1)NC(=O)OCc1cncs1)C(=O)c1ccc2nc(N3CCN(C)CC3)oc2c1` [Compound C15, Thiazol-5-ylmethyl (2S,3R)-3-hydroxy-4-(N-isobutyl-2-(4-methylpiperazin-1-yl)benzo[d]oxazole-6-carboxamido)-1-phenylbutan-2-ylcarbamate], the EC50 in data set [1] (setting [7]) is greater than 100 µM. Moreover, the CC50 at 3 days in [2] is greater than 100 µM. In data set [3], the recovery at 15 min, 5 μM is 25%. Also, the inhibition at 30 min, 10 μM against CYP3A4 [4] was 98%; against CYP3A4 [5], 79%; against CYP2C9, 96%; against CYP2C19 it was 67%. Further, the inhibition at 10 min, 10 μM against CYP3A4 [6] came to 93%. Also, the inhibition at 45 min, 10 μM at CYP2D6 was 97%. Moreover, the inhibition at 15 min, 10 μM against CYP1A2 stood at 18%.

For the molecule `CCN(C[C@@H](O)[C@H](Cc1ccccc1)NC(=O)OCc1cncs1)C(=O)c1ccc2nc(N(C)CC)oc2c1` [Compound C29, Thiazol-5-ylmethyl (2S,3R)-4-(N-ethyl-2-(ethyl(methyl)amino)benzo[d]-oxazole-6-carboxamido)-3-hydroxy-1-phenylbutan-2-ylcarbamate], in data set [1] (setting [7]), the EC50 was greater than 100 µM. Also, in [2], the CC50 at 3 days is 81.3 µM. Besides, the recovery at 15 min, 5 μM in data set [3] amounted to 58%. Also, the inhibition at 30 min, 10 μM on CYP3A4 [4] was found to be 90%; at CYP3A4 [5] it was 77%; against CYP2C9, 99%; at CYP2C19 it was 97%. On CYP3A4 [6], the inhibition at 10 min, 10 μM was found to be 94%. Further, the inhibition at 45 min, 10 μM against CYP2D6 was 32%. Also, on CYP1A2, the inhibition at 15 min, 10 μM amounted to 6%.

Regarding `C#CCN(C[C@@H](O)[C@H](Cc1ccccc1)NC(=O)OCc1cncs1)C(=O)c1ccc2nc(N(C)CC)oc2c1` [Compound C35, Thiazol-5-ylmethyl (2S,3R)-4-(2-(ethyl(methyl)amino)-N-(prop-2-ynyl)benzo[d]oxazole-6-carboxamido)-3-hydroxy-1-phenylbutan-2-ylcarbamate], the EC50 in [1] (setting [7]) was 60.3 µM. The CC50 at 3 days in data set [2] is 75.9 µM. Besides, the recovery at 15 min, 5 μM in data set [3] worked out at 57%. The inhibition at 30 min, 10 μM at CYP3A4 [4] stood at 96%; at CYP3A4 [5] it was 76%; against CYP2C9, 96%; at CYP2C19, 101%. Besides, on CYP3A4 [6], the inhibition at 10 min, 10 μM turned out to be 96%. Moreover, the inhibition at 45 min, 10 μM against CYP2D6 stood at 59%. Moreover, the inhibition at 15 min, 10 μM at CYP1A2 came to 7%.

As to `CCc1nc2ccc(C(=O)N(CC(C)C)C[C@@H](O)[C@H](Cc3ccccc3)NC(=O)OCc3cncs3)cc2o1` [Compound C39, Thiazol-5-ylmethyl (2S,3R)-4-(2-ethyl-N-isobutylbenzo[d]oxazole-6-carboxamido)-3-hydroxy-1-phenylbutan-2-ylcarbamate], the EC50 in data set [1] (Human immunodeficiency virus 1, IIIB, 72 h) is 87.1 µM. Moreover, the CC50 at 3 days in data set [2] is greater than 100 µM. For the same molecule, the inhibition at 30 min, 10 μM was 95% against CYP3A4 [4], 77% on CYP3A4 [5], 95% on CYP2C9 and 87% against CYP2C19. In addition, the inhibition at 10 min, 10 μM on CYP3A4 [6] was determined as 92%. Further, on CYP2D6, the inhibition at 45 min, 10 μM was 51%. Also, the inhibition at 15 min, 10 μM against CYP1A2 was 2%.

For `CCN(C)c1nc2ccc(C(=O)N(CC3CCCCC3)C[C@@H](O)[C@H](Cc3ccccc3)NC(=O)OCc3cncs3)cc2o1` [Compound C32, Thiazol-5-ylmethyl (2S,3R)-4-(N-(cyclohexylmethyl)-2-(ethyl(methyl)-amino)benzo[d]oxazole-6-carboxamido)-3-hydroxy-1-phenylbutan-2-yl-carbamate], the EC50 in data set [1] (setting [7]) was 20.9 µM. Besides, the CC50 at 3 days in data set [2] was 21.4 µM. Moreover, the recovery at 15 min, 5 μM in [3] was found to be 54%. The results for the inhibition at 30 min, 10 μM against CYP2C9 and against CYP2C19 were 98% and 100%, respectively. The inhibition at 45 min, 10 μM against CYP2D6 turned out to be 87%. In addition, the inhibition at 15 min, 10 μM on CYP1A2 is 27%.

By inhibition is commonly meant the relative decrease from the control value, in per cent.
